“And” between values parts separate entries of the source, which are not always exact repeats. Equal values may be shown once. Inconclusive results and toxic doses are left out.
System: L1210 leukemia ip in BDF1 mice, survival T/C
Experiment: NCI In Vivo Anticancer Drug Screen. Data for tumor model L1210 Leukemia (intraperitoneal) in B6D2F1 (BDF1) mice
Settings: endpoint: mean survival time, higher = longer survival
Method in brief: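 Transplanted-tumor mice were given test agent; controls received vehicle only. Survival readings from the two groups were divided (treated over control).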

[1] = dose: 100.0 mg/kg/injection, schedule: Q04DX002 (ip), vehicle: saline
[2] = dose: 100.0 mg/kg/injection, schedule: Q01DX009 (ip), vehicle: Klucel (hydroxypropylcellulose) (HPC)
[3] = dose: 100.0 mg/kg/injection, schedule: Q04DX003 (ip), vehicle: Klucel (hydroxypropylcellulose) (HPC)
[4] = dose: 200.0 mg/kg/injection, schedule: Q01DX009 (ip), vehicle: Klucel (hydroxypropylcellulose) (HPC)
[5] = dose: 400.0 mg/kg/injection, schedule: Q01DX009 (ip), vehicle: Klucel (hydroxypropylcellulose) (HPC)
[6] = dose: 200.0 mg/kg/injection, schedule: Q01DX001 (ip), vehicle: other
[7] = dose: 400.0 mg/kg/injection, schedule: Q01DX001 (ip), vehicle: other
[8] = dose: 100.0 mg/kg/injection, schedule: Q04DX002 (ip), vehicle: Klucel (hydroxypropylcellulose) (HPC)
[9] = dose: 200.0 mg/kg/injection, schedule: Q04DX002 (ip), vehicle: Klucel (hydroxypropylcellulose) (HPC)
[10] = dose: 400.0 mg/kg/injection, schedule: Q04DX002 (ip), vehicle: Klucel (hydroxypropylcellulose) (HPC)

## CCOC1(C(=O)O)CC(c2ccc(Cl)cc2)Nc2c(OC)ccc(OC)c21 (stereo unspecified)
dose: 100.0 mg/kg/injection, schedule: Q04DX003 (ip), vehicle: saline with Tween-80
  T/C: 98 % of control
dose: 200.0 mg/kg/injection, schedule: Q04DX003 (ip), vehicle: saline with Tween-80
  T/C: 93 % of control

## CN(Cc1ccccc1)C(=O)c1cccc(C(=O)N(C)Cc2ccccc2)c1
dose: 100.0 mg/kg/injection, schedule: Q01DX009 (ip), vehicle: other
  T/C: 97 % of control
dose: 200.0 mg/kg/injection, schedule: Q01DX009 (ip), vehicle: other
  T/C: 97 % of control
dose: 400.0 mg/kg/injection, schedule: Q01DX009 (ip), vehicle: other
  T/C: 94 % of control

## Cc1ncc(CO)c(Cc2ccc(N(C)C)cc2)c1O
[1]
  T/C: 88 % of control
dose: 200.0 mg/kg/injection, schedule: Q04DX002 (ip), vehicle: saline
  T/C: 103 % of control
dose: 400.0 mg/kg/injection, schedule: Q04DX002 (ip), vehicle: saline
  T/C: 95 % of control

## CCCCOc1ccc(OCCCCCCCCCC[N+](C)(C)C)cc1
dose: 1.56 mg/kg/injection, schedule: Q04DX002 (ip), vehicle: saline
  T/C: 103 % of control
dose: 3.13 mg/kg/injection, schedule: Q04DX002 (ip), vehicle: saline
  T/C: 96 % of control
dose: 6.25 mg/kg/injection, schedule: Q04DX002 (ip), vehicle: saline
  T/C: 96 % of control
dose: 12.5 mg/kg/injection, schedule: Q04DX002 (ip), vehicle: saline
  T/C: 97 % of control and 122 % of control

## N#CC(C#N)=Cc1ccc([N+](=O)[O-])o1
dose: 1.56 mg/kg/injection, schedule: Q04DX003 (ip), vehicle: saline
  T/C: 103 % of control
dose: 3.12 mg/kg/injection, schedule: Q01DX009 (ip), vehicle: Klucel (hydroxypropylcellulose) (HPC)
  T/C: 103 % of control
dose: 3.12 mg/kg/injection, schedule: Q04DX003 (ip), vehicle: saline
  T/C: 92 % of control
dose: 6.25 mg/kg/injection, schedule: Q01DX009 (ip), vehicle: Klucel (hydroxypropylcellulose) (HPC)
  T/C: 104 % of control
dose: 6.25 mg/kg/injection, schedule: Q04DX003 (ip), vehicle: saline
  T/C: 103 % of control

## N#Cc1cc(Cl)ccc1Cl
dose: 100.0 mg/kg/injection, schedule: Q01DX009 (ip), vehicle: gum acacia
  T/C: 100 % of control
dose: 100.0 mg/kg/injection, schedule: Q04DX003 (ip), vehicle: gum acacia
  T/C: 98 % of control
dose: 200.0 mg/kg/injection, schedule: Q01DX009 (ip), vehicle: gum acacia
  T/C: 103 % of control
dose: 200.0 mg/kg/injection, schedule: Q04DX003 (ip), vehicle: gum acacia
  T/C: 95 % of control
dose: 400.0 mg/kg/injection, schedule: Q01DX009 (ip), vehicle: gum acacia
  T/C: 95 % of control
dose: 400.0 mg/kg/injection, schedule: Q04DX003 (ip), vehicle: gum acacia
  T/C: 93 % of control

## O=NN(CCCl)C(=O)NC1[C@H](O)CCC[C@@H]1O (stereo partly specified)
dose: 2.6 mg/kg/injection, schedule: Q01DX001 (ip), vehicle: saline
  T/C: 228 % of control
dose: 4.0 mg/kg/injection, schedule: Q01DX001 (ip), vehicle: saline
  T/C: 385 % of control
dose: 6.0 mg/kg/injection, schedule: Q01DX001 (ip), vehicle: saline
  T/C: 455 % of control
dose: 9.0 mg/kg/injection, schedule: Q01DX001 (ip), vehicle: saline
  T/C: 505 % of control
dose: 14.0 mg/kg/injection, schedule: Q01DX001 (ip), vehicle: saline
  T/C: 340 % of control and 502 % of control
dose: 22.0 mg/kg/injection, schedule: Q01DX001 (ip), vehicle: saline
  T/C: 256 % of control and 309 % of control

## O=S(=O)(/C=C/c1ccccc1)Oc1ccc(-c2ccccc2)cc1
dose: 100.0 mg/kg/injection, schedule: Q01DX001 (ip), vehicle: acetone
  T/C: 104 % of control
dose: 100.0 mg/kg/injection, schedule: Q01DX009 (ip), vehicle: acetone
  T/C: 90 % of control
dose: 100.0 mg/kg/injection, schedule: Q04DX003 (ip), vehicle: acetone
  T/C: 97 % of control
dose: 200.0 mg/kg/injection, schedule: Q01DX001 (ip), vehicle: acetone
  T/C: 98 % of control
dose: 200.0 mg/kg/injection, schedule: Q04DX003 (ip), vehicle: acetone
  T/C: 91 % of control
dose: 400.0 mg/kg/injection, schedule: Q01DX001 (ip), vehicle: acetone
  T/C: 98 % of control
dose: 400.0 mg/kg/injection, schedule: Q01DX009 (ip), vehicle: acetone
  T/C: 90 % of control
dose: 400.0 mg/kg/injection, schedule: Q04DX003 (ip), vehicle: acetone
  T/C: 91 % of control

## CC/C(=C\c1cccc([N+](=O)[O-])c1)C(=O)O
[2]
  T/C: 97 % of control
[3]
  T/C: 96 % of control
[4]
  T/C: 92 % of control
dose: 200.0 mg/kg/injection, schedule: Q04DX003 (ip), vehicle: Klucel (hydroxypropylcellulose) (HPC)
  T/C: 95 % of control
[5]
  T/C: 100 % of control
dose: 400.0 mg/kg/injection, schedule: Q04DX003 (ip), vehicle: Klucel (hydroxypropylcellulose) (HPC)
  T/C: 95 % of control

## CC(C)NNC(=O)c1ccccc1
dose: 25.0 mg/kg/injection, schedule: Q04DX002 (ip), vehicle: saline
  T/C: 109 % of control
dose: 50.0 mg/kg/injection, schedule: Q04DX002 (ip), vehicle: saline
  T/C: 120 % of control
[1]
  T/C: 109 % of control

## Cc1cc2oc(=O)c3c(c2c(O)c1CN1CCCCC1)CCCC3
dose: 100.0 mg/kg/injection, schedule: Q01DX001 (ip), vehicle: carboxymethylcellulose (CMC)
  T/C: 98 % of control
dose: 200.0 mg/kg/injection, schedule: Q01DX001 (ip), vehicle: carboxymethylcellulose (CMC)
  T/C: 98 % of control
dose: 400.0 mg/kg/injection, schedule: Q01DX001 (ip), vehicle: carboxymethylcellulose (CMC)
  T/C: 96 % of control

## Cn1c(O)c(N=Nc2ccccc2[N+](=O)[O-])c2ccccc21
dose: 100.0 mg/kg/injection, schedule: Q01DX001 (ip), vehicle: other
  T/C: 95 % of control
[6]
  T/C: 90 % of control
[7]
  T/C: 95 % of control

## Cc1ccc([NH-])cc1.Cc1ccc([NH-])cc1.[Cl][Pt+2][Cl]
dose: 6.25 mg/kg/injection, schedule: Q01DX009 (ip), vehicle: saline with Tween-80
  T/C: 101 % of control
dose: 12.5 mg/kg/injection, schedule: Q01DX009 (ip), vehicle: saline with Tween-80
  T/C: 95 % of control

## Oc1ccc(N=Cc2c(O)ccc3ccccc23)cc1
[6]
  T/C: 90 % of control
[7]
  T/C: 91 % of control

## CCOC(=O)CNc1cccc(C(F)(F)F)c1
dose: 100.0 mg/kg/injection, schedule: Q01DX009 (ip), vehicle: carboxymethylcellulose (CMC)
  T/C: 98 % of control
[8]
  T/C: 100 % of control and 105 % of control
dose: 200.0 mg/kg/injection, schedule: Q01DX009 (ip), vehicle: carboxymethylcellulose (CMC)
  T/C: 93 % of control
[9]
  T/C: 109 % of control and 114 % of control
[10]
  T/C: 98 % of control

## CC1CC(OC(=O)CCN2CC2)CC(C)(C)C1 (stereo unspecified)
dose: 2.5 mg/kg/injection, schedule: Q01DX009 (ip), vehicle: Klucel (hydroxypropylcellulose) (HPC)
  T/C: 98 % of control
dose: 5.0 mg/kg/injection, schedule: Q01DX009 (ip), vehicle: Klucel (hydroxypropylcellulose) (HPC)
  T/C: 101 % of control
dose: 20.0 mg/kg/injection, schedule: Q01DX009 (ip), vehicle: Klucel (hydroxypropylcellulose) (HPC)
  T/C: 113 % of control
dose: 20.0 mg/kg/injection, schedule: Q04DX003 (ip), vehicle: Klucel (hydroxypropylcellulose) (HPC)
  T/C: 101 % of control
dose: 40.0 mg/kg/injection, schedule: Q01DX009 (ip), vehicle: Klucel (hydroxypropylcellulose) (HPC)
  T/C: 107 % of control
dose: 40.0 mg/kg/injection, schedule: Q04DX003 (ip), vehicle: Klucel (hydroxypropylcellulose) (HPC)
  T/C: 97 % of control
dose: 80.0 mg/kg/injection, schedule: Q04DX003 (ip), vehicle: Klucel (hydroxypropylcellulose) (HPC)
  T/C: 106 % of control

## N#CCCC(CCC#N)c1cccc(C(CCC#N)CCC#N)n1
dose: 12.5 mg/kg/injection, schedule: Q04DX003 (ip), vehicle: Klucel (hydroxypropylcellulose) (HPC)
  T/C: 96 % of control
dose: 25.0 mg/kg/injection, schedule: Q04DX003 (ip), vehicle: Klucel (hydroxypropylcellulose) (HPC)
  T/C: 95 % of control
dose: 50.0 mg/kg/injection, schedule: Q04DX003 (ip), vehicle: Klucel (hydroxypropylcellulose) (HPC)
  T/C: 90 % of control
[3]
  T/C: 96 % of control

## O=C(O)c1ccccc1Nc1ccccc1[N+](=O)[O-]
dose: 100.0 mg/kg/injection, schedule: Q01DX005 (ip), vehicle: Klucel (hydroxypropylcellulose) (HPC)
  T/C: 90 % of control
[2]
  T/C: 87 % of control
[8]
  T/C: 93 % of control
dose: 200.0 mg/kg/injection, schedule: Q01DX005 (ip), vehicle: Klucel (hydroxypropylcellulose) (HPC)
  T/C: 94 % of control
[4]
  T/C: 102 % of control
[9]
  T/C: 100 % of control
dose: 400.0 mg/kg/injection, schedule: Q01DX005 (ip), vehicle: Klucel (hydroxypropylcellulose) (HPC)
  T/C: 105 % of control
[5]
  T/C: 94 % of control
[10]
  T/C: 96 % of control
